Results published in patent EP4056546A1, “ALIPHATIC 18F-RADIOLABELING OF A TETRAZINE PRECURSOR” (University of Copenhagen, priority 2021, dated 2022).

What was measured:
[1] = Reaction kinetics measurement: second-order rate constants of tetrazines with TCO (stopped-flow photometer, pseudo-first-order); assay type: physicochemical; conditions: Second order rate constants with TCO at 37 °C in PBS
Method: Reaction kinetics of tetrazines with standard TCO were determined using pseudo-first-order measurements with an excess of the TCO compound in PBS (pH = 7.4) at 37.0 ± 0.1 °C following the decrease of tetrazine absorbance at 535 nm. Measurements were performed in triplicates using an SX20 stopped-flow photometer (Applied Photophysics, UK) equipped with a 535 nm LED light source. Data analysis was performed using Prism 6 (Graphpad) to determine the observed rate constants which were converted into secondorder rate constants through dividing by the TCO concentration.
Second-order rate constants for the reaction with TCO in PBS at 37 °C were determined by pseudo-first order measurements in a SX20 stopped flow photometer (Applied Photophysics).

[2] = Bench stability by analytical HPLC; assay type: physicochemical
Text: The stability of [^18F]13 and it precursor (28) was investigated by analytical HPLC.

[3] = Tetrazine core reactivity test with TCO-PNP (analytical HPLC); assay type: physicochemical; conditions: after 4 hours at r.t.
Method: The reaction between [^18F]13 TCO-PNP was performed by mixing the formulated [^18F]13 (200 µL) with 5 µL of the commercially available TCO-PNP ester dissolved in DMF (5 mg/mL) in an analytical HPLC vial. […]

[4] = tested on: CC49-TCO; experiment: Pretargeted PET/CT imaging in LS174T tumor xenograft bearing mice; assay type: in vivo, Balb/c nude mice
Method: The ability of [^18F]13 to be used as a pretargeting imaging agent was evaluated using a similar pretargeted setup that was used for the ex vivo blocking study in example 7. Mice were administered with CC49-TCO 72 h prior to administration of [^18F]13 where after PET/CT scanning was performed 1 h later. Control animals were injected with unconjugated mAb CC49 instead of CC49-TCO, but were otherwise treated exactly the same. After PET/CT scanning, animals were euthanized and an ex vivo biodistribution performed. […] The tumor uptake was clearly visible. A tumor-to-muscle (T/M) ratio of 20.1 and a tumor-to-blood (T/B) ratio of 1.2 from the image derived data (heart uptake used as surrogate for blood uptake) was determined. The relatively low T/B ratio is likely due to ligation of [^18F]13 with remnant CC49-TCO still circulating in the blood. Clearance of CC49-TCO from blood will most likely increase the ratio drastically. Uptake in tissues beside tumor and blood was low. […]
Pretargeted imaging of [^18F]13 as tested in vivo using the TAG-72 targeting antibody CC49 in human colorectal cancer xenograft tumors LS174T. […] The radioactivity in the tissues were determined using a gamma counter (Wizard^2, Perkin Elmer). Data was corrected for decay, tissue weight and the injected dose of radioactivity. […] Statistical difference between mean %ID/g values were analyzed using Welch's T-test. […]

SMILES: O=C(O)C(F)(F)F.O=C(O)CN(CCF)Cc1cc(F)cc(-c2nncnn2)c1 [Compound 9, N-(carboxymethyl)-2-fluoro-N-(3-fluoro-5-(1,2,4,5-tetrazin-3-yl)benzyl)ethanaminium 2,2,2-trifluoroacetate]
- Rate constant [1]: 87722 M⁻¹ s⁻¹

SMILES: O=C(O)C(F)(F)F.O=C(O)CN(CCF)Cc1cccc(-c2nncnn2)c1 [Compound 10, N-(3-(1,2,4,5-tetrazin-3-yl)benzyl)-N-(carboxymethyl)-2-fluoroethanaminium 2,2,2-trifluoroacetate]
- Rate constant [1]: 62464 M⁻¹ s⁻¹

SMILES: O=C(O)C(F)(F)F.O=C(O)CN(CCF)Cc1ccc(-c2nncnn2)cc1F [Compound 11, N-(carboxymethyl)-2-fluoro-N-(2-fluoro-4-(1,2,4,5-tetrazin-3-yl)benzyl)ethanaminium 2,2,2-trifluoroacetate]
- Rate constant [1]: 74592 M⁻¹ s⁻¹

SMILES: O=C(O)C(F)(F)F.O=C(O)CN(CCF)Cc1ccc(-c2nncnn2)cc1 [Compound 12, N-(4-(1,2,4,5-tetrazin-3-yl)benzyl)-N-(carboxymethyl)-2-fluoroethanaminium 2,2,2-trifluoroacetate]
- Rate constant [1]: 54999 M⁻¹ s⁻¹

SMILES: O=C(O)C(F)(F)F.O=C(O)CN(CC(=O)O)Cc1ccc(-c2nncnn2)cc1OCCF [Compound 13, 1-Carboxy-N-(carboxymethyl)-N-(2-(2-fluoroethoxy)-4-(1,2,4,5-tetrazin-3-yl)benzyl) methanaminium 2,2,2-trifluoroacetate]
- Rate constant [1]: 68478 M⁻¹ s⁻¹

SMILES: CC(C)(C)OC(=O)CN(CC(=O)OC(C)(C)C)Cc1ccc(-c2nncnn2)cc1OCCOS(=O)(=O)c1ccc([N+](=O)[O-])cc1 [Compound 28, Di-tert-butyl 2,2'-((2-(2-(((4-nitrophenyl)sulfonyl)oxy)ethoxy)-4-(1,2,4,5-tetrazin-3-yl)benzyl)azanediyl)diacetate]
- stability of the precursor ([2]; bench stability, analytical HPLC): decomposed over time
- stability of the precursor (time stable) ([2]; dissolved (25 mg/mL) in DMSO and frozen at -20 °C): at least 3 months
- stability of the precursor (time stable) ([2]; stored at -20 °C as a solid): ≥ 3 months

SMILES: O=C(O)CN(CC(=O)O)Cc1ccc(-c2nncnn2)cc1OCC[18F] [[^18F]13]
- ability to react with TCO-PNP [3]: still able to react quantitatively with TCO-PNP
- Stability at r.t. over 4 hours ([2]; after 4 hours, Figure 5A): no signs of decomposition
- stability (time stable) ([2]; analytical HPLC, r.t.): at least 4 hours
- tumor-to-muscle ratio in comparison with [64Cu]Cu-NOTa-PEG7-H-Tz, [111In]Tz-Tg and ZZ ([4]; PET imaging, Figure 6): highest tumor-to-musle ratio
- Uptake in tissues beside tumor and blood ([4]; PET/CT 1 h p.i., CC49-TCO pretargeted): low
